Source: patent publication US5998596A, “Inhibition of protein kinase activity by aptameric action of oligonucleotides” (The United States of America as represented by the …)
“Also recorded” adds a separate entry of the source. In the oligonucleotide strings, read from the 5' end, every base follows the letter of its sugar. An asterisk marks phosphorothioate; unmarked linkages are phosphodiester. Other units and linkages are bracketed, terminal groups are in braces. A string of capitals states the bases alone. d = 2'-deoxy (DNA)

Columns and labels:
[1] = tested on: cellular phosphotyrosine content of K562 cells; test: Western analysis of total cellular phosphotyrosine content after electroporation of K562 cells; type: cell-based, human; conditions: K562 cells electroporated with 100 μM ODN, one hour later
Method: One hundred micrograms of protein from cell lysates were separated on a 7% SDS polyacrylamide gel. Transfer was performed overnight at 50 volts, 4° C., in a 0.2 M glycine, 25 mM Tris, pH 8.3, 0.15% SDS, 20% methanol buffer, onto […] nitrocellulose (Schleicher and Schuell Inc.). For cellular phosphotyrosine blots, Western probing was performed as described previously, with modifications (SARTOR, et al, 1991). Briefly, membranes were blocked for 2 hours with 5% albumin in TTBS (20 mM Tris HCL, pH 7.6; 0.05% Tween 20; 0.9% sodium chloride), probed for 1 hour with antiphosphotyrosine antibody (Upstate Biotechnology Inc., Lake Placid, N.Y.) diluted 1:500 in TTBS, followed by rabbit anti-mouse antibody (Cappel Research Products) and then [^125 I] protein A Sepharose (Amersham Corp., Arlington Heights, Ill.). Membranes were exposed to Kodak X-OMAT AR film overnight at -70° C. with intensifying screens.
Electroporation was performed as described (40). Briefly, 1-5×10^6 cells in 1 ml of RPMI 1640 with 10% fetal calf serum were placed into 0.4 cm gap electroporation chambers and electroporated with a Cell-Porator Electroporation System 1 (all from GIBCO BRL, Grand Island, N.Y.) at 800 microfarrads, 300 volts, at room temperature. Cells were then incubated at 37° C. for 1 hour before manipulation.
In K562 cells p210^bcr-abl is a major kinase responsible for protein tyrosine phosphorylation (38, 39). Changes in enzyme activity are therefore reflected by changes in cellular phosphotyrosine content.

[2] = tested on: p210^bcr-abl kinase; test: Immunoprecipitation kinase assay of p210bcr-abl (autophosphorylation), ODN added to kinase reaction; type: biochemical, human; conditions: for Percent Remaining Activity of p210^bcr-abl kinase relative to control: ODN 1 μM, phosphorothioate capped, mean ± SE of three experiments; for inhibition of p210^bcr-abl kinase activity in vitro (in words): ODN at 1 μM added to the immunoprecipitated enzyme
Method: The p210^bcr-abl kinase, src kinase and cdc-2 kinase were immunoprecipitated from K562 cells. The p145^abl kinase was immunoprecipitated from PC3M cells, PDGF receptor kinase from 3T3 cells, and EGF receptor kinase from A431 cells. MAP kinase was utilized as a pure protein and lck kinase was immunoprecipitated from peripheral blood lymphocytes of a normal volunteer.
Cells were washed in phosphate buffered saline (PBS) and 0.5-5×10^6 cells were solubilized in 1 ml of the specified cell lysis buffers. Unless otherwise stated, all cell lysis buffers contained the following protease inhibitors: 20 μg/ml leupeptin, 1 μg/ml aprotinin, and 1 mM phenylmethylsulfonylfluroide. For p210^bcr-abl and […] immunoprecipitation, cells were lysed with ABL lysis buffer (25 mM imidazole, pH 7.2, 0.5% NP40, 50 mM NaCl, 1 mM Na3 VO4) and lysates were clarified at 14,000 g. 4° C. for 30 minutes. Cell lysis for all other proteins was performed according to the references describing the various immunoprecipitation kinase assays.
(§1) Immunoprecipitation kinase assays of p210^bcr-abl p145^abl were performed as described, with modifications (15). Briefly, for p210^bcr-abl, 1 μg of anti-bcr antibody (clone 7C6, Oncogene Science, Uniondale, N.Y.) was added to lysates prepared from 0.5-1×10^6 K562 cells. For p145^abl, 1 μg of anti-c-abl antibody (clone 24-21), which binds to the C-terminal domain of p145^abl, was added to lysates prepared from 5×10^6 PC3M cells. After incubating 1 hour at 4° C., complexes were precipitated by incubating with protein A-Sepharose coated with rabbit anti-mouse immunoglobulin (Cappel Research Products, Durham, N.C.) for 30 minutes. The complexes were then washed as follows: ABL lysis buffer×2, PBS×1, and ABL assay buffer×1 (24 mM imidazole, pH 7.2, 1 mg/ml bovine serum albumin, and 10 mM MnCl). For p145^abl assays ABL assay buffer contained 20 mM MnCl. To access the activity of p210^bcr-abl on substrate phosphorylation, acid inactivated enolase (Sigma Chemical Co., St. Louis, Mo.) was added as described (15).
(§2) ODNs were added to kinase reaction buffers not more than 5 minutes prior to the addition of ATP. Reactions were initiated by the addition of [γ^-32 P] ATP (3000 Ci/mmole; Amersham Corp., Arlington Heights, Ill.) and quenched by the addition of 5× gel loading buffer and heating to 95° C. Kinase reactions were run for 1-10 minutes at room temperature, except for EGFR, p145^abl, and MAP kinase, which were run at 30° C. The products were then electrophoresed on SDS-polyacrylamide gels: 7% for p210^bcr-abl, EGFR, and PDGFR, 8% for p145^abl, 10% for src, lck, and cdc-2 kinase, and 12% for MAP kinase. Gels were dried and reaction products were visualized by direct autoradiography at -70° C. with Kodak X-OMAT AR film. To determine the inhibitory concentration 50, i.e., the concentration required to inhibit enzyme activity by 50% (IC50) and Ki values, gel slices containing the band of interest were excised and analyzed by Cerenkov counting.

[3] = tested on: K562 cells; test: K562 colony formation in soft agar; type: cell-based, human; conditions: 50 μM ODN, two weeks, not electroporated
Method: K562, NIH 3T3, and A431 cells were purchased from the American Type Culture Collection (Rockville, Md.). PC3M prostate cancer cells were a generous gift from J. Trepel (National Institutes of Health, Bethesda, Md.). K562 and PC3M cells were cultured in RPMI 1640 with 10% heat-inactivated fetal bovine serum (FBS; GIBCO BRL, Grand Island, N.Y.) while NIH 3T3 and A431 cells were cultured in Dulbecco's modified Eagle's medium (Biofluids, Rockville, Md.) with 10% heat inactivated FBS. Cells were maintained at 37° C., 6% carbon dioxide with biweekly media changes. For soft agar cloning, cells were suspended in 0.3% low melting temperature agarose (SeaPlaque FMC BioProducts, Rockland, Me.) in RPMI 1640 with 10% total calf serum and maintained as above.
To evaluate the effects of these various ODNs of K562 cell growth, both growth in liquid culture and growth in soft agar were examined. […] Cells were electroporated in the presence of 50 μM ODN and kept in liquid culture. For soft agar cloning experiments, cells were not electroporated, but were grown in the presence of 50 μM ODN for two weeks. Liquid cultures were replenished with fresh medium containing 50 μM ODN. Two weeks following incubation in liquid culture, the number of trypan blue-excluding cells was determined. No effect on cell growth in liquid culture could be observed with any ODN tested (data not shown).

[4] = tested on: p210^bcr-abl kinase in K562 cells; test: Immunoprecipitation kinase assay of p210bcr-abl from ODN treated K562 cells; type: cell-based, human; conditions: K562 cells incubated 3 days with 50 μM ODN, washed
Method: as §1, §2
The effects of ODN1 on a cellular system were assessed. […] After 3 days, cells were washed and p210^bcr-abl kinase activity was measured. […] Neither cellular p210^bcr-abl protein content nor cell growth was affected by ODN treatment (data not shown).

[5] = tested on: MAP kinase; test: inhibition; conditions: PS, two linkages at each of 5' and 3' ends, rest phosphodiester; 30 C
[6] = tested on: PDGF receptor (PDGFR); test: inhibition; conditions: PS, two linkages at each of 5' and 3' ends, rest phosphodiester; autophosphorylation
[7] = listed as BCR-AS all-phosphorothioate

Substance: 5' CCGACCACTTCCGAGTACTAG-3' (chemistry not given here) [ABL-1bSCR, the scrambled version of ABL-1bAS]
- total cellular protein phosphotyrosine content [1]: less marked effects

Substance: 5' GGCCGTGCAGCTCGCACCGGC 3' (chemistry not given here) [ODN1C, scrambled version of ODN1]
- Percent Remaining Activity of p210^bcr-abl kinase relative to control [2]: 74 ± 15%

Substance: 5' GGCGGCCGCGCTGCAACCCGT 3' (chemistry not given here) [ODN1A, scrambled version of ODN1]
- Percent Remaining Activity of p210^bcr-abl kinase relative to control [2]: 42 ± 6.9%

Substance: 5' GGCGGCGGCGGCGGCGGCGGC 3' (chemistry not given here) [SEQ ID NO.: 11, 21mer consisting of seven tandem GGC repeats]
- inhibition of p210^bcr-abl kinase activity in vitro (in words) [2]: inhibitory activity equivalent to ODN1

Substance: 5' TCCGCGAACCCGGTGCGCCGG 3' (chemistry not given here) [ODN1D, scrambled version of ODN1 / BCR-AS]
- Percent Remaining Activity of p210^bcr-abl kinase relative to control [2]: 79 ± 79%
- inhibition of p210^bcr-abl kinase activity in vitro (in words) [2]: does not inhibit kinase activity
- ability to form colonies in soft agar [3]: inhibited the ability of these cells to form colonies in soft agar
- total cellular protein phosphotyrosine content ([1]; listed as BCR-SCR): effectively lowered protein phosphotyrosine content; also recorded: reduced protein phosphotyrosine content
- p210^bcr-abl kinase activity of ODN treated K562 cells [4]: did not inhibit kinase activity

Substance: 5' TGCCCAACGTCGCGCCGGCGG 3' (chemistry not given here) [ODN1B, scrambled version of ODN1]
- Percent Remaining Activity of p210^bcr-abl kinase relative to control [2]: 59 ± 6.4%

Substance: 5'-CGCTGAAGTTTTGAACTCTGC-3' (chemistry not given here) [B/A-AS, spans the bcr-abl fusion region, complementary to 11 bcr and 10 abl nucleotides of the mature fusion transcript]
- ability to form colonies in soft agar [3]: failed to effect the cloning ability of the cells
- total cellular protein phosphotyrosine content [1]: less marked effects; also recorded: no effect
- p210^bcr-abl kinase activity of ODN treated K562 cells [4]: inhibited kinase activity

Substance: 5'-GTCCACCATGGCGCGGCCGGC-3' [ODN1 2'-methoxy modified sugars] (2'-O-methyl modified sugars, pattern not given here)
- inhibition of p210^bcr-abl kinase activity in vitro (in words) [2]: least effective

Substance: 5'-GTCCACCATGGCGCGGCCGGC-3' [ODN1 all phosphodiester] (unmodified DNA)
- inhibition of p210^bcr-abl kinase activity in vitro (in words) [2]: intermediate potencies
- total cellular protein phosphotyrosine content ([1]; listed as BCR-AS phosphodiester): equally effective

Substance: 5'-GTCCACCATGGCGCGGCCGGC-3' [ODN1 all phosphorothioate] (DNA dG*dT*dC*dC*dA*dC*dC*dA*dT*dG*dG*dC*dG*dC*dG*dG*dC*dC*dG*dG*dC)
- inhibition of p210^bcr-abl kinase activity in vitro (in words) [2]: most potent inhibitor
- inhibition of p210^bcr-abl kinase activity in vitro (in words) [2, 7]: most effective inhibitor
- total cellular protein phosphotyrosine content [1, 7]: no effect

Substance: 5'-TCCAGGCTGCTGCCCCATAAA-3' (chemistry not given here) [ABL-1bAS, complementary to nucleotides -3 to +18 of the abl lb mRNA]
- total cellular protein phosphotyrosine content [1]: less marked effects

Substance: 5'-TGTACGTCCGGCTTACTAGTA-3' (chemistry not given here) [B/A-SCR, scrambled version of the B/A ODN]
- ability to form colonies in soft agar [3]: inhibited the ability of these cells to form colonies in soft agar
- total cellular protein phosphotyrosine content [1]: effectively lowered protein phosphotyrosine content; also recorded: reduced protein phosphotyrosine content
- p210^bcr-abl kinase activity of ODN treated K562 cells [4]: did

Substance: GGCG
- inhibition of p210^bcr-abl kinase activity in vitro (in words) [2]: no inhibitory activity

Substance: GTCCACCATGGCGCGGCCGGC [ODN1 (BCR-AS), phosphorothioate capped]
- IC50 [5]: > 100 µM
- IC50 [6]: 4.4 µM
